Results as given in patent US20240124460A1, “METHODS AND COMPOSITIONS FOR TARGETED PROTEIN DEGRADATION” (Ranok Therapeutics (Hangzhou) Co. Ltd., priority 2020, published 2024).
pEC50, pIC50: −log10 of the molar value.

Assays:
HSP90α protein = biological target: T1, HSP90α protein (Homo sapiens, UniProt P07900); test: HSP90α-binding FP (BODIPY) assay; details: FP competition with BODIPY-labeled RNK04010
T1 construct: purchased BPS Bioscience #50298
Summary of the method: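 Fluorescence polarization measured competition with N-terminal human HSP90α, using either FITC-geldanamycin or BODIPY-labelled triazolone RNK04010 as tracer (5 nM final each). Compounds were tested in 2.5-fold dilutions from 20 μM to 5.2 nM, with incubation at 25 °C for 120 min (FITC) or 300 min (BODIPY).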

ERBB2 = ERBB2 (HER2) flow cytometry protein degradation assay in BT-474 cells; format: cell-based, human; details: DC50, BT-474 cells, 24 hr
Method: To analyze total ERBB2 expression by flow cytometry, cells were detached with trypsin, washed, counted and treated with 10 μl/10^6 cells PE-conjugated, anti-ERBB2 monoclonal antibody (R&D Systems, #FAB1129P) for 30 min at 25° C. in dark. Cells were then washed, resuspended in 200 μl 1% paraformaldehyde and analyzed by flow cytometry.
% Inhibition=100−(D−B)/(S−B)*100%. • S: Fluorescence intensity of cells with antibody • D: Fluorescence intensity of compound-treated cells with antibody • B: Fluorescence intensity of cells without antibody

[1] = tested on: MV-4-11 human acute myeloid leukemia; test: MV-4-11 CCK-8 proliferation assay; format: cell-based; details: Homo sapiens, MV4-11; MV-4-11 cells, 72 hr
Summary of the method: (§1)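 Lines were maintained according to ATCC guidance. Compounds were then applied as a 3-fold titration from 20 μM to 1.02 nM, and proliferation was measured by CCK-8 absorbance, normalised to DMSO controls minus a no-cell blank.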

[2] = tested on: U-87 MG human glioblastoma; test: U87 MG CCK-8 proliferation assay; format: cell-based; details: Homo sapiens, U-87 MG, 72 h, U-87 MG cells, read-out: U87MG CCK-8
Summary of the method: as §1

MAPK7 = MAPK7 (Homo sapiens, UniProt Q13164); test: MAPK7 Western blot protein degradation assay in U-87 MG cells; format: cell-based; design: U-87 MG human glioblastoma cells, which express MAPK7; endogenous in cells; host or cells: U-87 MG; details: 48 hr
Sequence of MAPK7 (Q13164 whole entry): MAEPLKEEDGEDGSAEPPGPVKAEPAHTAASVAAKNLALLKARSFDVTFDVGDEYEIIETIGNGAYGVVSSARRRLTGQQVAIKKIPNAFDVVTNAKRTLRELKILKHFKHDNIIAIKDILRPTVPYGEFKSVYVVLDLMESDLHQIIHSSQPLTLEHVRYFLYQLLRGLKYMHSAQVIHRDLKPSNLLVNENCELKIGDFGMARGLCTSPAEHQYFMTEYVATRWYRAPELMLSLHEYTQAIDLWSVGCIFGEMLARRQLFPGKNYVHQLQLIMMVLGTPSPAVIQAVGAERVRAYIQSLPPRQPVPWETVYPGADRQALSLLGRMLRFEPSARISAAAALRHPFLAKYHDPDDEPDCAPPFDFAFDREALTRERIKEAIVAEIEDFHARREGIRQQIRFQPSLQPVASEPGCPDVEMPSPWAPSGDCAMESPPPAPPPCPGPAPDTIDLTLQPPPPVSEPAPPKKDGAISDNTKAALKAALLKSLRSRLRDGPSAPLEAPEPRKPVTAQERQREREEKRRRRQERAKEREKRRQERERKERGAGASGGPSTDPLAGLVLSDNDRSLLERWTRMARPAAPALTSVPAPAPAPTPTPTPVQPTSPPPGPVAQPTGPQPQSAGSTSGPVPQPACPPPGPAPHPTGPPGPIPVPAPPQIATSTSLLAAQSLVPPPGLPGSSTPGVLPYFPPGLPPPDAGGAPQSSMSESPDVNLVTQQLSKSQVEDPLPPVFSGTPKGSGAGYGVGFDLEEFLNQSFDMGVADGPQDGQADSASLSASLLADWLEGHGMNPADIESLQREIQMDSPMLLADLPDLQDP
Method: U-87 MG human glioblastoma cells were seeded in 6- or 12-well tissue culture plates, and after 1 hr, test compounds were added at various concentrations and incubated at 37° C./5% CO2 for 48 hr. Cells were then washed with cold PBS, aspirated and cold RIPA buffer containing a protease/phosphatase inhibitor cocktail was added to lyse cells. After centrifugation, the total protein concentrations of cell lysates were determined using the BCA protein assay. Samples were normalized for equivalent protein concentrations, 5×SDS-PAGE loading buffer added and denatured at 100° C. for 10 min. 20 μl of each sample/well was loaded on a SDS-PAGE gel and electrophoresed for 20 min at 80 V, then 120 V for 1.5 hr. Gels were then electroblotted to nitrocellulose membranes using a wet-transfer method at 250 mA for 2.5 hr. Membranes were incubated with blocking buffer for 1 hr and washed 3 times with TBST for 5 min. Membranes were then incubated with anti-MAPK7 (anti-ERK5; Cell Signaling Technology, #12950) and anti-3-Actin (Cell Signaling Technology, #3700) monoclonal antibodies diluted in blocking buffer at 4° C. overnight per the manufacturer's recommendations. After washing 3 times, blots were incubated with appropriately labeled secondary antibodies for 1 hr at room temperature and washed again. Fluorescence imaging and quantitation was performed using a LI-COR Odyssey. Results was analyzed using GraphPad Prism 7 software.

Structure (SMILES)	pIC50 (HSP90α protein)	pEC50 [1]	pEC50 [2]	MAPK7 degradation (30 nM) (MAPK7)	MAPK7 degradation (100 nM) (MAPK7)	MAPK7 degradation (1000 nM) (MAPK7)	MAPK7 degradation (300 nM) (MAPK7)	ERBB2 degradation (ERBB2)
CCOc1cc(N2CCC(C(=O)N3CCC(CN4CCN(Cc5ccc(-n6c(C(=O)NCC(F)(F)F)nnc6-c6cc(C)c(O)cc6O)cc5)CC4)CC3)CC2)ccc1Nc1ncc2c(n1)N(C)c1ccccc1C(=O)N2C [Compound 018, 5-(2,4-dihydroxy-5-methylphenyl)-4-(4-((4-((1-(1-(4-((5,11-dimethyl-6-oxo-6,11-dihydro-5H-benzo[e]pyrimido[5,4-b][1,4]diazepin-2-yl)amino)-3-ethoxyphenyl)piperidine-4-carbonyl)piperidin-4-yl)methyl)piperazin-1-yl)methyl)phenyl)-N-(2,2,2-trifluoroethyl)-4H-1,2,4-triazole-3-carboxamide]	6.00 to 7.00	> 7.00	6.00 to 7.00	C (< 33% degradation)	C (< 33% degradation)	A (>66% degradation)		B (DC50 = 100-1000 nM)
CCOc1cc(N2CCC(C(=O)N3CCC(CN4CCN(Cc5ccc(-n6c(O)nnc6-c6ccc(O)cc6O)cc5)CC4)CC3)CC2)ccc1Nc1ncc2c(n1)N(C)c1ccccc1C(=O)N2C [Compound 021, 2-((4-(4-(4-((4-(4-(3-(2,4-dihydroxyphenyl)-5-hydroxy-4H-1,2,4-triazol-4-yl)benzyl)piperazin-1-yl)methyl)piperidine-1-carbonyl)piperidin-1-yl)-2-ethoxyphenyl)amino)-5,11-dimethyl-5,11-dihydro-6H-benzo[e]pyrimido[5,4-b][1,4]diazepin-6-one]	6.00 to 7.00	6.00 to 7.00	< 6.00	C (< 33% degradation)	C (< 33% degradation)	C (< 33% degradation)	C (< 33% degradation)	
CCOc1cc(N2CCC(C(=O)N3CCN(Cc4ccc(-n5c(O)nnc5-c5cc(C(C)C)c(O)cc5O)cc4)CC3)CC2)ccc1Nc1ncc2c(n1)N(C)c1ccccc1C(=O)N2C.Cl [Compound 043, 2-((4-(4-(4-(4-(3-(2,4-dihydroxy-5-isopropylphenyl)-5-hydroxy-4H-1,2,4-triazol-4-yl)benzyl)piperazine-1-carbonyl)piperidin-1-yl)-2-ethoxyphenyl)amino)-5,11-dimethyl-5,11-dihydro-6H-benzo[e]pyrimido[5,4-b][1,4]diazepin-6-one]				C (< 33% degradation)	B (33-66% degradation)	A (>66% degradation)	A (>66% degradation)	B (DC50 = 100-1000 nM)
CCOc1cc(N2CCC(C(=O)NCCOCCOc3ccc(Nc4ccc(-n5nc(C(F)(F)F)c6c5CC(C)(C)CC6=O)cc4C(N)=O)cc3)CC2)ccc1Nc1ncc2c(n1)N(C)c1ccccc1C(=O)N2C [Compound 065, N-(2-(2-(4-((2-carbamoyl-4-(6,6-dimethyl-4-oxo-3-(trifluoromethyl)-4,5,6,7-tetrahydro-1H-indazol-1-yl)phenyl)amino)phenoxy)ethoxy)ethyl)-1-(4-((5,11-dimethyl-6-oxo-6,11-dihydro-5H-benzo[e]pyrimido[5,4-b][1,4]diazepin-2-yl)amino)-3-ethoxyphenyl)piperidine-4-carboxamide]	< 6.00	< 6.00	< 6.00					C (DC50 > 1000 nM)
CCOc1cc(N2CCC(C(=O)N3CCC(CN4CCN(CCCOc5ccc(Nc6ccc(-n7nc(C(F)(F)F)c8c7CC(C)(C)CC8=O)cc6C(N)=O)cc5)CC4)CC3)CC2)ccc1Nc1ncc2c(n1)N(C)c1ccccc1C(=O)N2C [Compound 066]	< 6.00	< 6.00	< 6.00					C (DC50 > 1000 nM)

More lines, main results first:

pIC50 (HSP90α protein)	pEC50 [1]	pEC50 [2]	MAPK7 degradation (30 nM) (MAPK7)	MAPK7 degradation (100 nM) (MAPK7)	MAPK7 degradation (1000 nM) (MAPK7)	MAPK7 degradation (300 nM) (MAPK7)	Structure (SMILES)	ERBB2 degradation (ERBB2)
6.00 to 7.00	> 7.00	6.00 to 7.00					CCOc1cc(N2CCC(C(=O)N3CCC(CN4CCN(Cc5ccc(-n6c(O)nnc6-c6cc(CC)c(O)cc6O)cc5)CC4)CC3)CC2)ccc1Nc1ncc2c(n1)N(S(C)(=O)=O)c1ccccc1C(=O)N2C [Compound 070, 2-((2-ethoxy-4-(4-(4-((4-(4-(3-(5-ethyl-2,4-dihydroxyphenyl)-5-hydroxy-4H-1,2,4-triazol-4-yl)benzyl)piperazin-1-yl)methyl)piperidine-1-carbonyl)piperidin-1-yl)phenyl)amino)-5-methyl-11-(methylsulfonyl)-5,11-dihydro-6H-benzo[e]pyrimido[5,4-b][1,4]diazepin-6-one]	B (DC50 = 100-1000 nM)
> 7.00	> 7.00	> 7.00					CCOc1cc(N2CCC(C(=O)N3CCC(CN4CCN(Cc5ccc(-n6c(C(=O)NC7CC7)nnc6-c6cc(CC)c(O)cc6O)cc5)CC4)CC3)CC2)ccc1Nc1ncc2c(n1)N(S(C)(=O)=O)c1ccccc1C(=O)N2C [Compound 075, N-cyclopropyl-4-(4-((4-((1-(1-(3-ethoxy-4-((5-methyl-11-(methylsulfonyl)-6-oxo-6,11-dihydro-5H-benzo[e]pyrimido[5,4-b][1,4]diazepin-2-yl)amino)phenyl)piperidine-4-carbonyl)piperidin-4-yl)methyl)piperazin-1-yl)methyl)phenyl)-5-(5-ethyl-2,4-dihydroxyphenyl)-4H-1,2,4-triazole-3-carboxamide]	B (DC50 = 100-1000 nM)
> 7.00	> 7.00	> 7.00					CCOc1cc(N2CCC(C(=O)N3CCC(CN4CCN(Cc5ccc(-n6c(C(=O)NC(C)C)nnc6-c6cc(CC)c(O)cc6O)cc5)CC4)CC3)CC2)ccc1Nc1ncc2c(n1)N(S(C)(=O)=O)c1ccccc1C(=O)N2C [Compound 098, 4-(4-((4-((1-(1-(3-ethoxy-4-((5-methyl-11-(methylsulfonyl)-6-oxo-6,11-dihydro-5H-benzo[e]pyrimido[5,4-b][1,4]diazepin-2-yl)amino)phenyl)piperidine-4-carbonyl)piperidin-4-yl)methyl)piperazin-1-yl)methyl)phenyl)-5-(5-ethyl-2,4-dihydroxyphenyl)-N-isopropyl-4H-1,2,4-triazole-3-carboxamide]	B (DC50 = 100-1000 nM)
6.00 to 7.00	> 7.00	6.00 to 7.00					CCOc1cc(N2CCC(C(=O)N3CCC(CN4CCN(Cc5ccc(-n6c(C(=O)N[C@H](C)C(F)(F)F)nnc6-c6cc(CC)c(O)cc6O)cc5)CC4)CC3)CC2)ccc1Nc1ncc2c(n1)N(S(C)(=O)=O)c1ccccc1C(=O)N2C [Compound 123, (R)-4-(4-((4-((1-(1-(3-ethoxy-4-((5-methyl-11-(methylsulfonyl)-6-oxo-6,11-dihydro-5H-benzo[e]pyrimido[5,4-b][1,4]diazepin-2-yl)amino)phenyl)piperidine-4-carbonyl)piperidin-4-yl)methyl)piperazin-1-yl)methyl)phenyl)-5-(5-ethyl-2,4-dihydroxyphenyl)-N-(1,1,1-trifluoropropan-2-yl)-4H-1,2,4-triazole-3-carboxamide]	B (DC50 = 100-1000 nM)
6.00 to 7.00	> 7.00	6.00 to 7.00					CCOc1cc(N2CCC(C(=O)N3CCC(CN4CCN(Cc5ccc(-n6c(C(=O)N[C@@H](C)C(F)(F)F)nnc6-c6cc(CC)c(O)cc6O)cc5)CC4)CC3)CC2)ccc1Nc1ncc2c(n1)N(S(C)(=O)=O)c1ccccc1C(=O)N2C [Compound 124, (S)-4-(4-((4-((1-(1-(3-ethoxy-4-((5-methyl-11-(methylsulfonyl)-6-oxo-6,11-dihydro-5H-benzo[e]pyrimido[5,4-b][1,4]diazepin-2-yl)amino)phenyl)piperidine-4-carbonyl)piperidin-4-yl)methyl)piperazin-1-yl)methyl)phenyl)-5-(5-ethyl-2,4-dihydroxyphenyl)-N-(1,1,1-trifluoropropan-2-yl)-4H-1,2,4-triazole-3-carboxamide]	B (DC50 = 100-1000 nM)
